Key:
[1] = test system: CYPIR (Rice Flatsedge); assay: Postemergence weed control under flooded paddy conditions; type: in vivo, Cyperus iria; conditions: postemergence weeds, 3-4 weeks after treatment
Method in brief: (§1)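 Herbicidal effect is judged by eye on a 0–9 scale versus control, 3–4 weeks after dosing. Dosing is into flood water kept 1.5–3 cm over the soil, at about 0.0313–0.500 kg/ha in aqueous/acetone 50/50 v/v, on 3–5 cm weeds and 1.5–2.5-leaf rice seedlings.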

[2] = test system: IPOHE (Morningglory, Ivyleaf); assay: Preemergence herbicidal evaluation; type: in vivo, Ipomoea hederacea; conditions: rated 4-5 weeks after treatment
Method in brief: (§2)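 Test compound, dissolved in aqueous acetone, was sprayed over planted soil cups at an equivalent of about 0.0156 to 0.500 kg/ha; seeds had been mixed with potting soil. Greenhouse growth followed, with visual 0-9 scoring of injury at four to five weeks.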

[3] = test system: ABUTH (Velvetleaf); assay: Postemergence herbicidal evaluation; type: in vivo, Abutilon theophrasti; conditions: postemergence
Method in brief: (§3)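 First, seedlings were raised for around two weeks. Next, test material in 50/50 acetone/water containing 0.5% TWEEN 20 was sprayed through a nozzle at 40 psi, equivalent to about 0.0156–0.500 kg/ha. Finally, after 4–5 weeks in the greenhouse, plants were rated 0–9.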

[4] = test system: ORYSAT (Rice, Tebonnet); assay: Postemergence herbicidal evaluation; type: in vivo, Oryza sativa, (L.) Tebonnet; conditions: postemergence
Method in brief: as §3

[5] = test system: CHEAL (Lambsquarters, Common); assay: Postemergence herbicidal evaluation; type: in vivo, Chenopodium album; conditions: postemergence
Method in brief: as §3

[6] = test system: ECHCG (Barnyardgrass); assay: Postemergence herbicidal evaluation; type: in vivo, Echinochloa crus-galli; conditions: postemergence
Method in brief: as §3

[7] = test system: TRZAWR (Wheat, Winter, cv Riband); assay: Preemergence herbicidal evaluation; type: in vivo, Triticum aestivum; conditions: rated 4-5 weeks after treatment
Method in brief: as §2

[8] = test system: IPOHE (Morningglory, Ivyleaf); assay: Postemergence herbicidal evaluation; type: in vivo, Ipomoea hederacea; conditions: postemergence
Method in brief: as §3

[9] = test system: CHEAL (Lambsquarters, Common); assay: Preemergence herbicidal evaluation; type: in vivo, Chenopodium album; conditions: rated 4-5 weeks after treatment
Method in brief: as §2

[10] = test system: ECHCG (Barnyardgrass); assay: Preemergence herbicidal evaluation; type: in vivo, Echinochloa crus-galli; conditions: rated 4-5 weeks after treatment
Method in brief: as §2

[11] = test system: CYPSE (Flatsedge); assay: Postemergence weed control under flooded paddy conditions; type: in vivo, Cyperus serotinus; conditions: postemergence weeds, 3-4 weeks after treatment
Method in brief: as §1

[12] = test system: ABUTH (Velvetleaf); assay: Preemergence herbicidal evaluation; type: in vivo, Abutilon theophrasti; conditions: rated 4-5 weeks after treatment
Method in brief: as §2

[13] = test system: ZEAMX (Corn, Field); assay: Postemergence herbicidal evaluation; type: in vivo, Zea mays; conditions: postemergence
Method in brief: as §3

[14] = test system: GLXMAW (Soybean, Williams); assay: Preemergence herbicidal evaluation; type: in vivo, Glycine max, (L.) Merr. cv Williams; conditions: rated 4-5 weeks after treatment
Method in brief: as §2

[15] = test system: SETVI (Foxtail, Green); assay: Postemergence herbicidal evaluation; type: in vivo, Setaria viridis; conditions: postemergence
Method in brief: as §3

[16] = test system: ZEAMX (Corn, Field); assay: Preemergence herbicidal evaluation; type: in vivo, Zea mays; conditions: rated 4-5 weeks after treatment
Method in brief: as §2

[17] = test system: CASOB (Sicklepod); assay: Preemergence herbicidal evaluation; type: in vivo, Cassia obtusifolia; conditions: rated 4-5 weeks after treatment
Method in brief: as §2

CCOC(=O)CN1C(=O)CSC1=Nc1cc(-n2c(=O)cc(C(F)(F)F)n(C)c2=O)c(F)cc1Cl [Compound 8, Ethyl 2-{{2-chloro-5-[3,6-dihydro-3-methyl-2,6-dioxo-4-(trifluoromethyl)-1(2H)pyrimidinyl]-4-fluorophenyl}imino}-4-oxo-3-thiazolidineacetate]
Herbicidal rating CYPIR ([1]; rate 0.0313 kg/ha): 0.0 | Herbicidal rating CYPIR ([1]; rate 0.0625 kg/ha): 0.0 | Herbicidal rating CYPIR ([1]; rate 0.1250 kg/ha): 0.0 | Herbicidal rating CYPIR ([1]; rate 0.2500 kg/ha): 4.0 | IPOHE preemergence herbicidal rating ([2]; rate 0.0156 kg/ha): 1.1 | IPOHE preemergence herbicidal rating ([2]; rate 0.0313 kg/ha): 4.4 | IPOHE preemergence herbicidal rating ([2]; rate 0.0625 kg/ha): 6.4 | IPOHE preemergence herbicidal rating ([2]; rate 0.1250 kg/ha): 8.6 | IPOHE preemergence herbicidal rating ([2]; rate 0.2500 kg/ha): 8.6 | IPOHE preemergence herbicidal rating ([2]; rate 0.5000 kg/ha): 9.0 | ABUTH herbicidal rating ([3]; rate 0.0157 kg/ha): 9.0 | ABUTH herbicidal rating ([3]; rate 0.0313 kg/ha): 9.0 | ABUTH herbicidal rating ([3]; rate 0.0625 kg/ha): 9.0 | ABUTH herbicidal rating ([3]; rate 0.1250 kg/ha): 9.0 | ORYSAT herbicidal rating ([4]; rate 0.0157 kg/ha): 2.0 | ORYSAT herbicidal rating ([4]; rate 0.0313 kg/ha): 2.7 | ORYSAT herbicidal rating ([4]; rate 0.0625 kg/ha): 4.1 | ORYSAT herbicidal rating ([4]; rate 0.1250 kg/ha): 5.3 | CHEAL herbicidal rating ([5]; rate 0.0157 kg/ha): 5.0 | CHEAL herbicidal rating ([5]; rate 0.0313 kg/ha): 7.5 | CHEAL herbicidal rating ([5]; rate 0.0625 kg/ha): 8.4 | CHEAL herbicidal rating ([5]; rate 0.1250 kg/ha): 9.0 | ECHCG herbicidal rating ([6]; rate 0.0157 kg/ha): 3.0 | ECHCG herbicidal rating ([6]; rate 0.0313 kg/ha): 2.1 | ECHCG herbicidal rating ([6]; rate 0.0625 kg/ha): 5.3 | ECHCG herbicidal rating ([6]; rate 0.1250 kg/ha): 8.2 | TRZAWR preemergence herbicidal rating ([7]; rate 0.0156 kg/ha): 0.2 | TRZAWR preemergence herbicidal rating ([7]; rate 0.0313 kg/ha): 0.8 | TRZAWR preemergence herbicidal rating ([7]; rate 0.0625 kg/ha): 2.8 | TRZAWR preemergence herbicidal rating ([7]; rate 0.1250 kg/ha): 5.5 | TRZAWR preemergence herbicidal rating ([7]; rate 0.2500 kg/ha): 7.2 | TRZAWR preemergence herbicidal rating ([7]; rate 0.5000 kg/ha): 7.8 | IPOHE herbicidal rating ([8]; rate 0.0157 kg/ha): 9.0 | IPOHE herbicidal rating ([8]; rate 0.0313 kg/ha): 9.0 | IPOHE herbicidal rating ([8]; rate 0.0625 kg/ha): 9.0 | IPOHE herbicidal rating ([8]; rate 0.1250 kg/ha): 9.0 | CHEAL preemergence herbicidal rating ([9]; rate 0.0156 kg/ha): 9.0 | CHEAL preemergence herbicidal rating ([9]; rate 0.0313 kg/ha): 9.0 | CHEAL preemergence herbicidal rating ([9]; rate 0.0625 kg/ha): 9.0 | CHEAL preemergence herbicidal rating ([9]; rate 0.1250 kg/ha): 9.0 | CHEAL preemergence herbicidal rating ([9]; rate 0.2500 kg/ha): 9.0 | CHEAL preemergence herbicidal rating ([9]; rate 0.5000 kg/ha): 9.0 | ECHCG preemergence herbicidal rating ([10]; rate 0.0156 kg/ha): 0.4 | ECHCG preemergence herbicidal rating ([10]; rate 0.0313 kg/ha): 2.2 | ECHCG preemergence herbicidal rating ([10]; rate 0.0625 kg/ha): 4.4 | ECHCG preemergence herbicidal rating ([10]; rate 0.1250 kg/ha): 7.4 | ECHCG preemergence herbicidal rating ([10]; rate 0.2500 kg/ha): 8.9 | ECHCG preemergence herbicidal rating ([10]; rate 0.5000 kg/ha): 9.0 | Herbicidal rating CYPSE ([11]; rate 0.0313 kg/ha): 0.0 | Herbicidal rating CYPSE ([11]; rate 0.0625 kg/ha): 0.0 | Herbicidal rating CYPSE ([11]; rate 0.1250 kg/ha): 0.0 | Herbicidal rating CYPSE ([11]; rate 0.2500 kg/ha): 0.0 | ABUTH preemergence herbicidal rating ([12]; rate 0.0156 kg/ha): 7.3 | ABUTH preemergence herbicidal rating ([12]; rate 0.0313 kg/ha): 8.4 | ABUTH preemergence herbicidal rating ([12]; rate 0.0625 kg/ha): 8.7 | ABUTH preemergence herbicidal rating ([12]; rate 0.1250 kg/ha): 9.0 | ABUTH preemergence herbicidal rating ([12]; rate 0.2500 kg/ha): 9.0 | ABUTH preemergence herbicidal rating ([12]; rate 0.5000 kg/ha): 9.0 | ZEAMX herbicidal rating ([13]; rate 0.0157 kg/ha): 7.5 | ZEAMX herbicidal rating ([13]; rate 0.0313 kg/ha): 7.3 | ZEAMX herbicidal rating ([13]; rate 0.0625 kg/ha): 7.4 | ZEAMX herbicidal rating ([13]; rate 0.1250 kg/ha): 7.6 | GLXMAW preemergence herbicidal rating ([14]; rate 0.0156 kg/ha): 0.2 | GLXMAW preemergence herbicidal rating ([14]; rate 0.0313 kg/ha): 1.1 | GLXMAW preemergence herbicidal rating ([14]; rate 0.0625 kg/ha): 3.2 | GLXMAW preemergence herbicidal rating ([14]; rate 0.1250 kg/ha): 5.9 | GLXMAW preemergence herbicidal rating ([14]; rate 0.2500 kg/ha): 7.9 | GLXMAW preemergence herbicidal rating ([14]; rate 0.5000 kg/ha): 8.8 | SETVI herbicidal rating ([15]; rate 0.0313 kg/ha): 5.3 | SETVI herbicidal rating ([15]; rate 0.0625 kg/ha): 7.6 | SETVI herbicidal rating ([15]; rate 0.1250 kg/ha): 9.0 | ZEAMX preemergence herbicidal rating ([16]; rate 0.0156 kg/ha): 2.2 | ZEAMX preemergence herbicidal rating ([16]; rate 0.0313 kg/ha): 4.9 | ZEAMX preemergence herbicidal rating ([16]; rate 0.0625 kg/ha): 6.4 | ZEAMX preemergence herbicidal rating ([16]; rate 0.1250 kg/ha): 7.4 | ZEAMX preemergence herbicidal rating ([16]; rate 0.2500 kg/ha): 7.9 | ZEAMX preemergence herbicidal rating ([16]; rate 0.5000 kg/ha): 8.3 | CASOB preemergence herbicidal rating ([17]; rate 0.0156 kg/ha): 0.0 | CASOB preemergence herbicidal rating ([17]; rate 0.0313 kg/ha): 0.1 | CASOB preemergence herbicidal rating ([17]; rate 0.0625 kg/ha): 1.2 | CASOB preemergence herbicidal rating ([17]; rate 0.1250 kg/ha): 1.7 | CASOB preemergence herbicidal rating ([17]; rate 0.2500 kg/ha): 3.3 | CASOB preemergence herbicidal rating ([17]; rate 0.5000 kg/ha): 3.8
